Counter-ions that a name gives are not always drawn.
How the values were obtained:
Format in all cases: biochemical
[1] = test system: human JAK1 (a.a. 837-1142) catalytic domain; test: In vitro JAK kinase assay (HTRF), JAK1; conditions: ratio of IC50 values at 1 mM ATP
Experimental: (§1) The catalytic activity of JAK1, JAK2 or JAK3 was assayed by measuring the phosphorylation of a biotinylated peptide. The phosphorylated peptide was detected by homogenous time resolved fluorescence (HTRF). […] Reactions were carried out at room temperature for 1 hour and then stopped with 20 μL 45 mM EDTA, 300 nM SA-APC, 6 nM Eu-Py20 in assay buffer (Perkin Elmer, Boston, Mass.). Binding to the Europium labeled antibody took place for 40 minutes and HTRF signal was measured on a Fusion plate reader (Perkin Elmer, Boston, Mass.).

[2] = target: human JAK1 (a.a. 837-1142) catalytic domain (Homo sapiens, UniProt P23458); test: In vitro JAK kinase assay (HTRF), JAK1; conditions: JAK enzyme assay at 1 mM ATP
Experimental: as §1

[3] = target: human JAK2 (a.a. 828-1132) catalytic domain (Homo sapiens (Human), UniProt O60674); test: In vitro JAK kinase assay (HTRF), JAK2; conditions: JAK enzyme assay at 1 mM ATP
Experimental: as §1

Chain of human JAK2 (a.a. 828-1132) catalytic domain (O60674 828-1132): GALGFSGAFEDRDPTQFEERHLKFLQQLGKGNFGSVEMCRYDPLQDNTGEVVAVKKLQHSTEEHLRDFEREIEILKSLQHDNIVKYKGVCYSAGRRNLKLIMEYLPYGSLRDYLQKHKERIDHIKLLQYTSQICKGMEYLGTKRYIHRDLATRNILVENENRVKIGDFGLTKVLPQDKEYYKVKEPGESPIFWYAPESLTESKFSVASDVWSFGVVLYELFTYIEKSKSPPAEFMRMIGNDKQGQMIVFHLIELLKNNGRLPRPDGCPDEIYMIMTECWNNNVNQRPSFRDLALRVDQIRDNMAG

SMILES | JAK2/JAK1 [1] | IC50 [2] [nM] | IC50 [3] [nM]
Cc1n[nH]cc1-c1cn(C2(CC#N)CN(c3cnc(C(=O)NC(C)C)cn3)C2)nc1C [Example 6, 5-[3-(Cyanomethyl)-3-(3,3′-dimethyl-1H,1′H-4,4′-bipyrazol-1-yl)azetidin-1-yl]-N-isopropylpyrazine-2-carboxamide trifluoroacetate] | >10 | < 300 | > 1000
Cc1n[nH]cc1-c1cnn(C2(CC#N)CN(c3ccc(C(=O)NC(C)C)cc3)C2)c1 [Example 3, 4-[3-(Cyanomethyl)-3-(3′-methyl-1H,1′H-4,4′-bipyrazol-1-yl)azetidin-1-yl]-N-isopropylbenzamide trifluoroacetate] | >10 | < 300 | > 1000
Cc1n[nH]c(C)c1-c1cnn(C2(CC#N)CN(c3cnc(C(=O)NC(C)C)cn3)C2)c1 [Example 8, 5-[3-(Cyanomethyl)-3-(3′,5′-dimethyl-1H,1′H-4,4′-bipyrazol-1-yl)azetidin-1-yl]-N-isopropylpyrazine-2-carboxamide] | – | < 300 | –
C[C@H](NC(=O)c1cc(F)c(N2CC(CC#N)(n3cc(-c4c[nH]nc4CO)cn3)C2)cc1F)C(F)(F)F [Example 12, 4-{3-(Cyanomethyl)-3-[3′-(hydroxymethyl)-1H,1′H-4,4′-bipyrazol-1-yl]azetidin-1-yl}-2,5-difluoro-N-[(1S)-2,2,2-trifluoro-1-methylethyl]benzamide trifluoroacetate] | – | 300 to 1000 | > 1000
Cc1nn(C2(CC#N)CN(c3cnc(C(=O)NC(C)C)cn3)C2)cc1-c1cn[nH]c1 [Example 10, 5-[3-(Cyanomethyl)-3-(3-methyl-1H,1′H-4,4′-bipyrazol-1-yl)azetidin-1-yl]-N-isopropylpyrazine-2-carboxamide trifluoroacetate] | – | 300 to 1000 | > 1000
Cc1n[nH]c(C)c1-c1cnn(C2(CC#N)CN(c3cnc(C(=O)N[C@@H](C)C(F)(F)F)cn3)C2)c1 [Example 9, 5-[3-(Cyanomethyl)-3-(3′,5′-dimethyl-1H,1′H-4,4′-bipyrazol-1-yl)azetidin-1-yl]-N-[(1S)-2,2,2-trifluoro-1-methylethyl]pyrazine-2-carboxamide trifluoroacetate] | >10 | < 300 | 300 to 1000
CCc1n[nH]cc1-c1cnn(C2(CC#N)CN(c3cnc(C(=O)N[C@@H](C)C(F)(F)F)cn3)C2)c1 [Example 11, 5-[3-(Cyanomethyl)-3-(3′-ethyl-1H,1′H-4,4′-bipyrazol-1-yl)azetidin-1-yl]-N-[(1S)-2,2,2-trifluoro-1-methylethyl]pyrazine-2-carboxamide trifluoroacetate] | – | 300 to 1000 | > 1000

Further lines, results first:

JAK2/JAK1 [1] | IC50 [2] [nM] | IC50 [3] [nM] | SMILES
>10 | < 300 | 300 to 1000 | Cc1n[nH]cc1-c1cnn(C2(CC#N)CN(c3cnc(C(=O)NC(C)C)cn3)C2)c1 [Example 2, 5-[3-(Cyanomethyl)-3-(3′-methyl-1H,1′H-4,4′-bipyrazol-1-yl)azetidin-1-yl]-N-isopropylpyrazine-2-carboxamide trifluoroacetate]
>10 | < 300 | > 700 | Cc1[nH]ncc1-c1cnn(C2(CC#N)CN(c3cnc(C(=O)N[C@@H](C)C(F)(F)F)cn3)C2)c1 [Example 1, 5-[3-(Cyanomethyl)-3-(3′-methyl-1H,1′H-4,4′-bipyrazol-1-yl)azetidin-1-yl]-N-[(1S)-2,2,2-trifluoro-1-methylethyl]pyrazine-2-carboxamide trifluoroacetate]
>10 | 300 to 1000 | > 1000 | C[C@H](NC(=O)c1cc(F)c(N2CC(CC#N)(n3cc(-c4cn[nH]c4)cn3)C2)cc1F)C(F)(F)F [Example 5, 4-[3-(1H,1′H-4,4′-Bipyrazol-1-yl)-3-(cyanomethyl)azetidin-1-yl]-2,5-difluoro-N-[(1S)-2,2,2-trifluoro-1-methylethyl]benzamide trifluoroacetate]
>10 | < 300 | > 1000 | Cc1n[nH]cc1-c1cn(C2(CC#N)CN(c3cc(F)c(C(=O)N[C@@H](C)C(F)(F)F)cc3F)C2)nc1CO [Example 13, 4-{3-(Cyanomethyl)-3-[3-(hydroxymethyl)-3′-methyl-1H,1′H-4,4′-bipyrazol-1-yl]azetidin-1-yl}-2,5-difluoro-N-[(1S)-2,2,2-trifluoro-1-methylethyl]benzamide]
– | < 300 | – | Cc1n[nH]cc1-c1cnn(C2(CC#N)CN(c3cc(F)c(C(=O)N[C@@H](C)C(F)(F)F)cc3F)C2)c1 [Example 4, 4-[3-(Cyanomethyl)-3-(3′-methyl-1H,1′H-4,4′-bipyrazol-1-yl)azetidin-1-yl]-2,5-difluoro-N-[(1S)-2,2,2-trifluoro-1-methylethyl]benzamide trifluoroacetate]

From US9926301B2, “Bipyrazole derivatives as JAK inhibitors” (Incyte Corporation, priority 2013, dated 2018)
